In ChEMBL document CHEMBL3044566, “Synthesis and anticancer activity of some new s-triazine derivatives” (Med Chem Res, 2013):

What was measured:
Type in all cases: functional, cell-based
PA-1 = assay: Cytotoxicity against human PA1 cells after 24 hrs by MTT assay; details: PA-1, 24 h
HT-29 = assay: Cytotoxicity against human HT-29 cells after 24 hrs by MTT assay; details: HT-29, 24 h
A549 = assay: Cytotoxicity against human A549 cells after 24 hrs by MTT assay; details: A549, 24 h
MCF7 = assay: Cytotoxicity against human MCF7 cells after 24 hrs by MTT assay; details: MCF7, 24 h

SMILES | IC50 (PA-1) [µM] | IC50 (HT-29) [µM] | IC50 (A549) [µM] | IC50 (MCF7) [µM]
c1ccc(Nc2nc(Nc3ccc(-c4nc5ccccc5o4)cc3)nc(N3CCOCC3)n2)cc1 | 0.61 | 0.27 | 22 | 10.6
Fc1ccc(Nc2nc(Nc3ccc(-c4nc5ccccc5o4)cc3)nc(N3CCOCC3)n2)cc1 | 0.45 | 0.31 | 26.7 | 12.3
Clc1nc(Nc2ccccc2)nc(Nc2ccc(-c3nc4ccccc4o3)cc2)n1 | 169 | 32.6 | 225 | 55.2
Fc1ccc(Nc2nc(Cl)nc(Nc3ccc(-c4nc5ccccc5o4)cc3)n2)cc1 | 186 | 47 | 254 | 68.4
COc1ccc(Nc2nc(Nc3ccc(-c4nc5ccccc5o4)cc3)nc(N3CCOCC3)n2)cc1 | 0.25 | 0.14 | 12.9 | 6.48
COc1cccc2c1C(=O)c1c(O)c3c(c(O)c1C2=O)C[C@@](O)(C(=O)CO)C[C@@H]3O[C@H]1C[C@H](N)[C@H](O)[C@H](C)O1 [DOXORUBICIN] | 0.64 | 1.76 |  | 10.9
Clc1nc(NCc2ccccc2)nc(Nc2ccc(-c3nc4ccccc4o3)cc2)n1 | 195 | 44 | 296 | 66.1
COc1ccc(Nc2nc(Cl)nc(Nc3ccc(-c4nc5ccccc5o4)cc3)n2)cc1 | 172 | 139 | 278 | 270
c1ccc(CNc2nc(Nc3ccc(-c4nc5ccccc5o4)cc3)nc(N3CCOCC3)n2)cc1 | 10.5 | 0.92 | 23.4 | 2.46
